{"source": "a melting point compilation (Tetko et al.; mined from patent text by program, amines drawn as free bases though some values may be those of a salt)", "data": [{"units": {"melting point": "°C"}, "values": [{"smiles": "CCOC(=O)c1cc(Cl)c2[nH]ncc2n1", "melting point": "276 to 279"}, {"smiles": "Cc1ccc(C[C@@H](NC(=O)c2cccc3c2C=CCCC3)[C@@H](O)c2ccc(F)cc2)cc1OC(F)(F)C(F)F", "note": "(racemic)", "melting point": "168 to 169"}, {"smiles": "CCOC(=O)c1c(N2CCN(C(=O)c3cccs3)CC2)c2cccnc2n(Cc2cccc(F)c2)c1=O", "melting point": "105 to 110"}, {"smiles": "N#Cc1nn(-c2c(Cl)cc(C(F)(F)F)cc2Cl)cc1C1CC1(Cl)Cl", "note": "(stereo unspecified)", "melting point": "123 to 126"}, {"smiles": "COC(=O)CCc1c(C(C)C)cc(C(C)C)cc1C(C)C", "melting point": "45 to 47"}, {"smiles": "Cc1nc(N2CCN(Cc3ccc(F)cc3)C2=O)sc1C(=O)NCc1csc(C(C)C)n1", "melting point": "170 to 172"}, {"smiles": "Cc1ccc2c(c1)/C(=N\\NC(N)=O)C(=O)N2CCN(C(C)C)C(C)C", "melting point": "159 to 161"}, {"smiles": "COCCOc1ccc(CCCOc2cc(CCC(=O)O)n(-c3ccccc3)n2)c(Oc2ncc(C(F)(F)F)cc2Cl)c1", "melting point": "128 to 129"}, {"smiles": "CCOc1cc2ncc(C#N)c(Nc3ccc4c(C)cc(=O)oc4c3)c2cc1OCC", "melting point": "282 to 284"}, {"smiles": "CCOC(=O)c1cc2ccccc2n(C(C)C)c1=O", "melting point": "54 to 57"}, {"smiles": "OCc1nc(Cl)cc(N2CCCC2)n1", "melting point": "90 to 93"}, {"smiles": "CCCCCc1c(-c2ccc3cc(OCC#N)ccc3c2)n(Cc2ccccc2)c2ccccc12", "melting point": "109 to 112"}, {"smiles": "Cc1cn(C2OC(C)(CO)C(O)C2F)c(=O)[nH]c1=O", "note": "(stereo unspecified)", "melting point": 80}, {"smiles": "O=C(NCCO)/C(=C/c1ccc(OC2CC2)cc1)NC(=O)c1ccc(OCCC2CC2)cc1", "melting point": "132 to 134"}, {"smiles": "OCc1nc2n(n1)-c1ccc(Cl)cc1N(c1ccccc1)C2", "melting point": "204 to 207"}, {"smiles": "O=c1c(Cl)c(S(=O)(=O)Cc2ccccc2)cnn1-c1ccccc1", "melting point": "154 to 156"}, {"smiles": "CN(C)C(=C[N+](=O)[O-])NCc1cnc(Cl)s1", "melting point": "101 to 102"}, {"smiles": "COc1nc2cc(Cl)c(Cl)c(-n3c(CN4CCOCC4)nnc3-c3cccnc3)c2nc1OC", "melting point": "178 to 179"}, {"smiles": "CN(C)C=C(C#N)C(=O)Nc1cc(Cl)ccc1Cl", "melting point": "175 to 176"}, {"smiles": "COc1ccc(C(=O)N(C(=O)c2ccc(OC)cc2)c2nc3ccc(N4CCN(Cc5ccccc5)CC4)cc3c(NCc3ccccc3)c2C#N)cc1", "melting point": 157}, {"smiles": "CC1CCC2(C)C(=CCC3C2CCC2(C)C(C(=O)CN)CCC32)C1", "note": "(stereo unspecified)", "melting point": 139}, {"smiles": "COc1ccccc1-n1c(=O)[nH]c2c(C(N)=O)nc(N[C@H]3CC[C@H](O)CC3)nc21", "melting point": "165 to 167"}, {"smiles": "COc1ccc(NC(=O)c2ccc(-c3ccc(C(=O)N4CCCC4)cc3C)cc2)cc1N1CCN(C)CC1", "melting point": "187 to 188"}, {"smiles": "NCCC(=O)N(N)S(=O)(=O)c1ccccc1", "melting point": "135 to 137"}, {"smiles": "CCOCc1nc2c(N)nc3cc(OCCCN4CCCC4=O)ccc3c2n1CCCCN1CCCS1(=O)=O", "melting point": "142 to 144"}, {"smiles": "Cc1ccc(N(C)S(=O)(=O)c2cccs2)c2[nH]c(C3=NCC(CC(=O)O)S3)cc12", "note": "(stereo unspecified)", "melting point": "269 to 270"}, {"smiles": "Nc1cc(C(F)(F)C(F)(F)F)no1", "melting point": "86 to 87"}, {"smiles": "COc1ccc(C(=O)C2CCC(C)(C(=O)O)C2(C)C)c(OC)c1", "note": "(stereo unspecified)", "melting point": 145}, {"smiles": "CCOC(=O)c1cn(-c2ccccn2)cn1", "melting point": "118 to 119"}, {"smiles": "CCOc1cc2c(c3c1OC(C)(C)C3)C(c1cccc(C(=O)NCC(N)=O)c1)=NC(C)(C)C2", "melting point": "127 to 128"}, {"smiles": "COC(=O)[C@H](Cc1ccccc1)Oc1c(C)cc(-c2c3ccccc3c(Br)c3sc(C)c(C)c23)cc1C", "melting point": "134 to 139"}, {"smiles": "O=C(O)C1CCc2onc(-c3ccc(Cl)cc3)c2CC1", "note": "(stereo unspecified)", "melting point": "144 to 145"}, {"smiles": "CCN(C)C(=O)Nc1c(C(=O)c2ccccc2)[nH]c2cc(Cl)ccc12", "melting point": "159 to 161"}, {"smiles": "Cn1c(=O)c2sccc2n2cnc(-c3nc(C4CC4)no3)c12", "melting point": "206 to 207"}, {"smiles": "COC(=O)N[C@H](C(=O)N[C@@H](Cc1ccccc1)[C@@H](O)CN(Cc1ccc(-c2cncs2)cc1)NC(=O)[C@@H](NC(=O)OC)C(C)(C)C)C(C)C", "melting point": "114 to 115"}, {"smiles": "O=C1NCCN1c1ccc(S(=O)(=O)Nc2ccc(I)cc2)cc1", "melting point": "266 to 267"}, {"smiles": "CC(C)(CNC(=O)CN1CCCC1=O)N1CCCCC1", "melting point": 69}, {"smiles": "CCOc1cc(N)c(Cl)cc1C(=O)NCC1CN(Cc2ccccc2Cl)C(C)(C)CO1", "note": "(stereo unspecified)", "melting point": "181 to 184"}, {"smiles": "CN(Cc1ccc(Cl)c(Cl)c1)C(=O)C1=C(O)C(=O)N(C2CC2)C1", "melting point": "163 to 164"}, {"smiles": "O=c1ccn(C2=CCN(Cc3ccc(Br)cc3)C=C2)cc1", "melting point": "166 to 168"}, {"smiles": "COc1ccc(C2C(Oc3ccccc3)C(=O)N2c2cc(OC)c(OC)c(OC)c2)cc1O", "note": "(stereo unspecified)", "melting point": "176 to 180"}, {"smiles": "Cc1cc(-c2[nH]c3ccc(O)cc3c2C)cc(C)c1O", "melting point": "174 to 176"}, {"smiles": "CCOC(=O)c1cn(-c2cc(NC(=O)OC(C)(C)C)c(F)cc2F)c2c(C)c(F)c(F)c(C)c2c1=O", "melting point": "141 to 142"}, {"smiles": "CCOC(=O)C(C)(C)Oc1ccc(C(=O)Nc2ccccc2Sc2ccccc2-c2nnn[nH]2)cc1", "melting point": "157 to 158"}, {"smiles": "CCOc1cc(C(CS(C)(=O)=O)N2C(=O)c3cccc(N(S(C)(=O)=O)S(C)(=O)=O)c3C2=O)ccc1OC", "note": "(stereo unspecified)", "melting point": "277 to 279"}, {"smiles": "CCOC(=O)[C@H]1CC(OS(=O)(=O)c2ccc(C)cc2)CN1S(=O)(=O)c1ccc(C)cc1", "note": "(stereo partly specified)", "melting point": 93}, {"smiles": "Cc1cccc2c1nc(-c1c(F)cccc1F)n2Cc1c(F)cccc1F", "melting point": "182 to 186"}, {"smiles": "NS(=O)(=O)c1ccc(-c2cc(-c3nc(-c4ccc(C(F)(F)F)nc4)cc(C(F)F)n3)ccn2)s1", "melting point": 270}, {"smiles": "CC(=O)COc1cc(N2C(=O)c3ccccc3C2=O)ccc1N1C(=O)c2ccccc2C1=O", "melting point": 300}, {"smiles": "O=C(O)c1ccc([C@H]2CC[C@H](C3CCC4(CC3)OCCO4)CC2)cc1F", "melting point": 228}, {"smiles": "O=c1[nH]ccc2c1ccn2-c1ccc(C(F)(F)F)cc1Cl", "melting point": "233 to 235"}, {"smiles": "O=C(c1ccc(Cl)cc1)N1CCCC2=C1CCc1cc(Cl)ccc12", "melting point": "189 to 191"}, {"smiles": "c1cnc2ncncc2c1", "melting point": "249 to 252"}, {"smiles": "CCCCCCCCCCCCCCCCCC(=O)Oc1ccccc1C(=O)OCC", "melting point": "50.5 to 53.5"}, {"smiles": "CNc1cc(-n2cc(C(=O)O)c(=O)c3cc(F)c(NC)c(C)c32)c(F)cc1F", "melting point": "220 to 222"}, {"smiles": "O=C(O)C1=Cc2c(ccc(Cl)c2-c2ccco2)OC1C(F)(F)F", "note": "(stereo unspecified)", "melting point": "191 to 193"}, {"smiles": "N#Cc1ccccc1Oc1ccc(Cl)cc1", "melting point": "84 to 86"}, {"smiles": "CCOC(=O)C(O)=Cc1cc(OCc2ccccc2)ncn1", "melting point": "136 to 137"}, {"smiles": "O=C(CCC1=C(n2nc(-c3c(-c4ccccc4)nn4ccccc34)ccc2=O)CCCC1)OCc1ccccc1", "melting point": "111 to 113"}, {"smiles": "COC1(c2cccc3[nH]ccc23)CCNCC1", "melting point": 216}, {"smiles": "Cc1cc(-c2ccc(Cl)cc2)nc(-c2cccc(-c3cccc(S(N)(=O)=O)c3)c2)n1", "melting point": 221}, {"smiles": "CCCCC(=NNC=O)c1ccncc1", "melting point": 143}, {"smiles": "Cc1coc(C)c1N(C)c1cc(Br)cc2c1nc(C)n2C", "melting point": "207 to 208"}, {"smiles": "O=C(O)CCc1oc(-n2cnc3ccccc32)nc1-c1ccc(C(F)(F)F)cc1", "melting point": "224 to 226"}, {"smiles": "CCN(CCN(CC)c1ccc(N=O)c(C)c1)c1ccc(N=O)c(C)c1", "melting point": 157}, {"smiles": "Cc1noc(NS(=O)(=O)c2cc(Br)c(Cl)s2)c1Br", "melting point": "143 to 145"}, {"smiles": "CCCC(=O)Nc1n[nH]c2cc(-c3ccccc3)ccc12", "melting point": 220}, {"smiles": "O=[N+]([O-])c1nccn1CC(O)CN1C2CCCCCC21", "note": "(stereo unspecified)", "melting point": "91 to 91.5"}, {"smiles": "COc1ccc(CNC(SC)=C(C#N)C#N)cc1", "melting point": "100 to 101"}, {"smiles": "Cc1ccc2c(c1)NC(=O)[C@H](N)C[C@@H]2C1CCCCC1", "note": "(relative stereo)", "melting point": "64 to 66"}, {"smiles": "COC(=O)C1=NNC(C)=C(C(=O)OC)C1c1ccc(C)cc1", "note": "(stereo unspecified)", "melting point": 180}, {"smiles": "COc1ccc(C(Cc2ccncc2)c2ccc(C(=O)O)cc2)cc1OC1CCCC1", "note": "(stereo unspecified)", "melting point": "161 to 163"}, {"smiles": "CCN1CCCc2cc(C=C3SC(=O)NC3=O)ccc21", "melting point": "238 to 241"}, {"smiles": "COc1cc(C(=O)N2CCC(CCN3CCC(Nc4nc5ccccc5n4Cc4ccccn4)CC3)(c3ccc(F)cc3)C2)cc(OC)c1OC", "note": "(stereo unspecified)", "melting point": "110 to 119"}, {"smiles": "CC1=NN(c2ccc(C(=O)O)cc2)C(=O)C1Cc1ccc(-c2cc(C)c(C)cc2[N+](=O)[O-])o1", "note": "(stereo unspecified)", "melting point": "160 to 163"}, {"smiles": "Oc1ccc2c(c1)CCCC(c1ccccc1)=C2c1ccc(OCCCCCCSCc2ccccn2)cc1", "melting point": 127}, {"smiles": "O=C1Nc2ccccc2C(c2ccc(Cl)c(Cl)c2)CC1Br", "note": "(stereo unspecified)", "melting point": "183 to 188"}, {"smiles": "CC1(C)Oc2ccc(S(=O)(=O)c3ccc(C#N)cc3)cc2[C@@H](N2CCCC2=O)[C@@H]1O", "note": "(relative stereo)", "melting point": "234 to 235"}, {"smiles": "Cc1ncc2c(n1)-c1ccc(Cl)cc1C(c1ccccc1F)=NC2", "melting point": "104 to 107"}, {"smiles": "O=Cc1ccc(N2C[C@H](CN3C(=O)c4ccccc4C3=O)OC2=O)cc1F", "melting point": "167 to 169"}, {"smiles": "CC1CNc2cc(C3=NNC(=O)CC3)ccc2O1", "note": "(stereo unspecified)", "melting point": "294 to 296"}, {"smiles": "N#Cc1ccc(Cn2cncn2)cc1-c1ccc(OS(N)(=O)=O)cc1", "melting point": "159 to 162"}, {"smiles": "O=C(NC(CCl)CCOc1ccc(Br)cc1)c1c(F)cccc1F", "note": "(stereo unspecified)", "melting point": "116 to 119"}, {"smiles": "Fc1ccc2nc(S)oc2c1F", "melting point": "209 to 210"}, {"smiles": "CC(C)(C)c1cc(CCc2ccccc2NC(=O)NCCCc2ccccc2)cc(C(C)(C)C)c1O", "melting point": "161 to 162"}, {"smiles": "CC(O)c1ccc(Cc2ccccc2CO)cc1", "note": "(stereo unspecified)", "melting point": "96 to 97"}, {"smiles": "CC(=O)OCC1OC(F)C(N2C(=O)c3ccccc3C2=O)C(OC(C)=O)C1OC(C)=O", "note": "(stereo unspecified)", "melting point": 116}, {"smiles": "COC(=O)c1ccc2c(c1)Sc1ccccc1N=C2N1CCOCC1", "melting point": "114 to 115"}, {"smiles": "O=C(C1=CNCCS1)c1ccc(F)cc1", "melting point": "212 to 214"}, {"smiles": "COn1c(C)nn(-c2cc(F)c(C#N)cc2Cl)c1=O", "melting point": 102}, {"smiles": "CN(C)C(=O)C(=O)c1ccc(Cl)cc1C(=O)c1ccccc1", "melting point": "88 to 90"}, {"smiles": "COc1cc(-c2cccc(Cl)c2)c2cc(C(O)c3cncn3C)ccc2n1", "note": "(stereo unspecified)", "melting point": 205}, {"smiles": "CCOCc1nc2c(N)nc3cccnc3c2n1CCCON=C1CCN(C)CC1", "melting point": "111 to 112"}, {"smiles": "N#Cc1cccc(C2=NNCCC2n2cc(Cl)cn2)c1", "note": "(stereo unspecified)", "melting point": 171}, {"smiles": "COc1ccc2c(c1)cc(C(=O)Nc1nc(-c3cc(OC)c(C)cc3OC)c(CCC3CCCCC3)s1)n2CC(=O)O", "melting point": "163 to 165"}, {"smiles": "CN(C)C(=O)CCc1c[nH]c(-c2cccs2)c1", "melting point": "107 to 109"}]}]}
